The source made the active and inactive calls. No cut-off for these calls is given here.
Key:
[1] = Acute toxicity in mouse assessed as death rate ratio at 476 mg/kg, ip measured over 14 days; assay type: organism-based; conditions: in vivo, 336 h, time 14 day
[2] = Toxicity in Balb/c mouse implanted with mouse 4T1 cells assessed as liver lesions at 50 mg/kg administered intratumorally every four days for 14 days by H&E staining based histopathological analysis; assay type: organism-based; conditions: in vivo, other, 336 h, route it(Intratumoral), time 14 day
[3] = system: 4T1; assay: Antitumor activity aginst mouse 4T1 cells implanted in Balb/c mouse assessed as nuclei shrinkage at 50 mg/kg, ip administered every two days for 14 days; assay type: functional, organism-based; conditions: time 14.0 day
[4] = system: MDA-MB-231; assay: Induction of apoptosis in human MDA-MB-231 cells assessed as increase in cytochrome C expression at 0.5 to 3 times of IC50 concentration by Western blot analysis; assay type: functional, cell-based
[5] = Toxicity in Balb/c mouse implanted with mouse 4T1 cells assessed as heart lesions at 50 mg/kg administered intratumorally every four days for 14 days by H&E staining based histopathological analysis; assay type: organism-based; conditions: in vivo, other, 336 h, route it(Intratumoral), time 14 day
[6] = Acute toxicity in mouse assessed as death rate ratio at 238 mg/kg, ip measured over 14 days; assay type: organism-based; conditions: in vivo, 336 h, time 14 day
[7] = system: MDA-MB-231; assay: Induction of cell cycle arrest in human MDA-MB-231 cells assessed as decrease in G1 phase cells at 10 uM incubated for 24 hrs by PI staining based flow cytometric analysis (reference value: 74.44%); assay type: functional; design: scale not given: the % may be the effect or the level left
[8] = Toxicity in Balb/c mouse xenografted with mouse 4T1 cells assessed as lung lesions at 200 mg/kg administered topically over the tumor surface every two days for 14 days in the presence of cyanoacrylate by H&E staining based histopathological analysis; assay type: organism-based; conditions: in vivo, topical_or_ocular, 336 h, route top, time 14 day
[9] = system: MDA-MB-231; assay: Induction of apoptosis in human MDA-MB-231 cells assessed as increase in cytochrome C expression at 1 uM incubated for 24 hrs by Western blot analysis; assay type: functional, cell-based
[10] = Toxicity in Balb/c mouse implanted with mouse 4T1 cells assessed as effect on body weight at 50 mg/kg, ip administered every two days for 14 days; assay type: organism-based; conditions: in vivo, 336 h, time 14 day
[11] = Toxicity in Balb/c mouse implanted with mouse 4T1 cells assessed as spleen lesions at 50 mg/kg, ip administered every two days for 14 days by H&E staining based histopathological analysis; assay type: organism-based; conditions: in vivo, 336 h, time 14 day
[12] = Toxicity in Balb/c mouse implanted with mouse 4T1 cells assessed as spleen lesions at 50 mg/kg administered intratumorally every four days for 14 days by H&E staining based histopathological analysis; assay type: organism-based; conditions: in vivo, other, 336 h, route it(Intratumoral), time 14 day
[13] = system: Mus musculus; assay: Protection of Balb/c mouse spleen implanted with mouse 4T1 cells at 50 mg/kg administered intratumorally every four days for 14 days in the presence of liquid cyanoacrylate; assay type: functional, organism-based; conditions: route it(Intratumoral), time 14.0 day
[14] = system: 4T1; assay: Antitumor activity against mouse 4T1 cells xenografted in Balb/c mouse assessed as tumor growth inhibition at 50 mg/kg, ip administered every two days for 14 days; assay type: functional; design: scale not given: the % may be the effect or the level left; conditions: time 14 day
[15] = system: MDA-MB-231; assay: Induction of mitochondrial membrane potential loss in human MDA-MB-231 cells assessed as increase in green fluorescence intensity at 0.1 to 1 uM measured after 24 hrs byJC-1 staining based fluorescence microscopic analysis; assay type: functional, cell-based; conditions: dose 0.1-1 µM
[16] = system: 4T1; assay: Antitumor activity against mouse 4T1 cells xenografted in Balb/c mouse assessed as TUNEL positive cells at 200 mg/kg administered topically over the tumor surface every two days for 14 days in the presence of cyanoacrylate by TUNEL staining analysis (reference value: 21.78%); assay type: functional; conditions: route top, time 14 day

Question: What does the source list for `Cc1[nH]c2ccccc2c1C1=C(Cl)C(=O)C(Cl)=C(N2CCOCC2)C1=O`?
Answer: Ratio [1]: 0.66; Activity [2]: Non-Toxic; Activity [3]: Active; Activity [4]: Active; Activity [5]: Non-Toxic; Ratio [6]: 0.17; Activity [7]: 16.84%; Activity [8]: Non-Toxic; Activity [9]: Active; Activity [10]: Non-Toxic; Activity [11]: Non-Toxic; Activity [12]: Non-Toxic; Activity [13]: Active; Activity [14]: 36%; Activity [15]: Active; Activity [16]: 64.71%
